# Test system: Normal human melanocytes
# Test: Melanogenesis: quantity of melaninic pigments in cultured normal human melanocytes
# Type: cell-based
# Conditions: ten days culture
# Method: Normal human melanocytes are cultured for ten days in the absence and in the presence of non-cytotoxic quantities of the dry extract. The quantity of melaninic pigments is evaluated by extraction using 0.5 N soda and optical density measurement.
# The procedure is as before for the dry extract.
# The procedure is as before for the dry extract using 5-HTP extracted from the seeds of Griffonia simplicifolia.
compound,measurement,setting,value
"N[C@@H](Cc1c[nH]c2ccc(O)cc12)C(=O)O [5-HTP, 5-hydroxytryptophan]","quantity of melanin produced by the melanocytes, % of the control","0.0016 mg/ml, p less than 0.05",93%
same,"quantity of melanin produced by the melanocytes, % of the control","0.008 mg/ml, p less than 0.01",89%
same,"quantity of melanin produced by the melanocytes, % of the control","0.04 mg/ml, p less than 0.01",80%

# From patent publication US20090047310A1, “Use of a griffonia extract, in particular griffonia simplicifolia, in a cosmetic or dermatological composition for mitigating pigmentation of skin and skin appendages” (priority 2005, published 2009)
